Tests used:
Carbonic anhydrase 9 = Carbonic anhydrase 9 (Homo sapiens, UniProt Q16790); assay: Inhibition of human carbonic anhydrase-9 preincubated for 15 mins by stopped-flow CO2 hydration assay
[1] = target: Carbonic anhydrase 5A, mitochondrial (Homo sapiens, UniProt P35218); assay: Inhibition of human carbonic anhydrase-5A preincubated for 15 mins by stopped-flow CO2 hydration assay
Carbonic anhydrase 5A, mitochondrial, sequence (P35218 whole entry): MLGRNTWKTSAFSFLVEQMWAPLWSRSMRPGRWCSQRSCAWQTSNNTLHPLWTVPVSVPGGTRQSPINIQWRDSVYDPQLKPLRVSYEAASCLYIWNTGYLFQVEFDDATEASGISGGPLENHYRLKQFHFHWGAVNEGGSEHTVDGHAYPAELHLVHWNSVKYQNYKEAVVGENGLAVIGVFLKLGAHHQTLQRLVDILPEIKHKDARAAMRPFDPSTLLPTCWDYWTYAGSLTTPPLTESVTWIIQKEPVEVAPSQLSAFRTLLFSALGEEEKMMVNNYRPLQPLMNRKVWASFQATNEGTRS

Compound	Ki (Carbonic anhydrase 9) [nM]	Ki [1] [nM]
COc1cc(CCNS(N)(=O)=O)cc(OC)c1OC	221	> 50000
COc1cccc(CCNS(N)(=O)=O)c1OC	> 50000	> 50000
COc1ccc(CCNS(N)(=O)=O)cc1	376	3250

Now those with a lower Ki (Carbonic anhydrase 9), led by results:

Ki (Carbonic anhydrase 9) [nM]	Ki [1] [nM]	Compound
92	2280	COc1ccc(CCNS(N)(=O)=O)cc1OC
41	3340	COc1ccccc1CCNS(N)(=O)=O

Source: ChEMBL document CHEMBL2385061, “Synthesis and carbonic anhydrase inhibitory properties of sulfamides structurally related to dopamine” (Bioorg Med Chem, 2013)
